According to patent EP4717275A1, “ANTI-LUNG CANCER COMBINED DRUG AND USE THEREOF” (Gunagdong Yinzhu Pharmaceutical Technology Co., Ltd, priority 2023, dated 2024):
Where two headings read alike, the source gives them in different places. Marks after values point to notes of the source that are not given here.

Columns and labels:
mouse melanoma = details: transplanted tumors, dexamethasone by intraperitoneal injection; cited from earlier work
[1] = assay type: in vivo; details: dead/total animals at Day 21; NCI-H1975 study; PO, QD×21
Procedure: (§1) BALB/c Nude mice, female, 8-10 weeks old, 18-20g. The variation of the body weight is ±20% around average body weight. 80 mice were inoculated and 60 mice were grouped.
(§2) The grouping day was designated as Day 0, and administration commenced according to animal body weight.
Animal body weight and tumor volume were measured twice weekly throughout the experiment. Tumor length and width were measured using a digital caliper, with tumor volume estimated from these measurements.
Clinical observations were recorded daily to assess overall health status, weight abnormalities, behavioral changes, and other treatment-related adverse reactions.
In accordance with animal welfare regulations, animals meeting any of the following criteria during the study were removed from the experimental group and euthanized: 1. Body weight loss exceeding 20% compared to Day 0 (BWL ≥ 20%); 2. Severe adverse reactions such as blindness or paralysis; 3. Tumor volume exceeding 2000 mm^3; 4.
The animal body weight change rate (%BWC) is calculated as: (BWt - BW0) / BW0 × 100%, where BWt is the animal body weight at each measurement and BW0 is the animal body weight at grouping.
According to China's NMPA Technical Guidance Principles for Non-clinical Studies of Cytotoxic Antineoplastic Drugs (November 2006), %T/CRTV ≤ 40% and statistically significant P < 0.05 indicate efficacy. Drug-related animal mortality exceeding 20% indicates severe toxicity at that dose.
All experimental data in this study are expressed as Mean ± SEM.

[2] = system: human lung cancer NCI-H2228 xenografts; assay: Therapeutic effect in vivo on NCI-H2228 xenografts in nude mice; design: species or system BALB/c Nude mice; details: PO; for Relative tumor proliferation rate(%) Day 21: %T/CRTV; for Tumor growth inhibition rate(%) Day 21: %TGITV from tumor volume vs control; for Tumor growth inhibition rate(%) Day 21 / Tumor volume (mm^3,Mean±SEM) Day 21 / Relative tumor volume Day 21: QD× 21; for Tumor inhibition rate(%) Day 21: %TGITW from tumor weight vs control; for Tumor volume (mm^3,Mean±SEM) Day 21: QD×21, dose per group; for Relative tumor volume Day 21: RTV = Vt/V0, Mean ± SEM
Procedure: as §1
Table 9 Experimental design of therapeutic effect of the drugs in vivo
NCI-H2228 cells were cultured in RPMI 1640 medium supplemented with 10% FBS and maintained in a 37°C, 5% CO2 humidified incubator.
Log-phase NCI-H2228 cells were harvested, resuspended in RPMI 1640 basal medium containing 50% Matrigel, and adjusted to a concentration of 2 × 10^7 cells/mL. Under aseptic conditions, 0.1 mL of the cell suspension was injected subcutaneously into the right flank of mice at a concentration of 2 × 10^6 cells/0.1 mL/mouse.
When the mean tumor volume reached approximately 150 mm^3, animals were randomly grouped based on tumor volume, ensuring inter-group tumor volume variation was less than 10% of the mean.
as §2
(§3) The same as the therapeutic effect evaluation experiments for Examples 1-2 and Comparative Examples 1-3.

[3] = Animal body weight, fatality and toxicity observation in the NCI-H2228 xenograft study; assay type: in vivo, BALB/c Nude mice; details: dead/total animals at Day 21; NCI-H2228 study; PO, QD×21
From the text: as §1, §2, §3

[4] = QD×21, listed as Comparative Example 5
[5] = QD×21, listed as Comparative Example 6
[6] = QD×21, listed as Comparative Example 5, CAI, 20mg /kg
[7] = QD×21, listed as Comparative Example 6, CAI, 40mg /kg

SMILES: NC(=O)c1nnn(Cc2cc(Cl)c(C(=O)c3ccc(Cl)cc3)c(Cl)c2)c1N [CAI, 5-Amino-1-[3,5-dichloro-4-(4-chlorobenzoyl chloride)benzyl]-1H-1,2,3-triazole-4-benzamide]
- inhibition rate (mouse melanoma): 39.8%
- Fatality [1]: 0/10 (Day 21)
- Relative tumor proliferation rate(%) Day 21 [2, 4]: 69.94%
- Relative tumor proliferation rate(%) Day 21 [2, 5]: 68.46%
- Tumor growth inhibition rate(%) Day 21 [2, 6]: 33.39%
- Tumor growth inhibition rate(%) Day 21 [2, 7]: 34.01%
- Tumor inhibition rate(%) Day 21 [2, 4]: 39.40%
- Tumor inhibition rate(%) Day 21 [2, 5]: 42.96%
- Tumor volume (mm^3,Mean±SEM) Day 21 ([2]; listed as Comparative Example 5, CAI, 20mg /kg): 979.25± 64.93* mm^3
- Tumor volume (mm^3,Mean±SEM) Day 21 ([2]; listed as Comparative Example 6, CAI, 40mg /kg): 970.11± 102.46* mm^3
- Tumor weight (g,Mean±SEM) Day 21 [2, 4]: 0.529 ± 0.055 g
- Tumor weight (g,Mean±SEM) Day 21 [2, 5]: 0.498 ± 0.059 g
- Relative tumor volume Day 21 [2, 6]: 6.12±0.29
- Relative tumor volume Day 21 [2, 7]: 5.99±0.48
- Fatality [3]: 0/10 (Day 21)
